For data set [1], the target named is T1, ABCG2 (Homo sapiens, UniProt Q9UNQ0).
T1 construct: endogenous in cells; host or cells: UMUC3 bladder cancer cells
T1 sequence (Q9UNQ0 1-655): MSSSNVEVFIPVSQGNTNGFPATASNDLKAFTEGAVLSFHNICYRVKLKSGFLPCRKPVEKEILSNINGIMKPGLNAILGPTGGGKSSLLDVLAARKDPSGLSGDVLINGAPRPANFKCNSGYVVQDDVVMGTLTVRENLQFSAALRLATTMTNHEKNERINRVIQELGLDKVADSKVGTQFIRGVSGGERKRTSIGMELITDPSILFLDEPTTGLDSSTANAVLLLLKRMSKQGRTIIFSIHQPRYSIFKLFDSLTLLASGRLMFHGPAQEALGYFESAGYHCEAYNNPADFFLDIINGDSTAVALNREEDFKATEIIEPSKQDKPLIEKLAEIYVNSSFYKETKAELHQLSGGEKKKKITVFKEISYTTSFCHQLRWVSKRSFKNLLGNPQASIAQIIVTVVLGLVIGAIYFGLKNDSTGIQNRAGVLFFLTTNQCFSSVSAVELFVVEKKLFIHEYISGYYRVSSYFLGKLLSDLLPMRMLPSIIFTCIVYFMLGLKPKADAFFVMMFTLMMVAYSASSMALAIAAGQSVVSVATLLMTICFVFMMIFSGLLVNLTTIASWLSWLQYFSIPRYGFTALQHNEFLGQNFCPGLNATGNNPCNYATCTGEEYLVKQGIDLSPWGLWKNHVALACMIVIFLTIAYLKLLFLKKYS
The data set is described as follows: ABCG2 substrate specificity: PS uptake with/without Gleevec, UMUC3. It is filed as cell-based. The following applies: UMUC3 cells; PS 500 nM; Gleevec 5 μM; fluorescence. From the text: (§1) T24 cells lack ABCG2 expression.
(§2) C1e. In contrast to PS 1 and 2, the PS- erlotinib conjugate 3 is not the substrate of ABCG2: The influence of PS as substrate for ABCG2 transport was observed by fluorescent microscopy. […] This information is very interesting as it could help to select an effective treatment option to cancer patients with and without expression of ABCG2 transporter.

Data set [2] relates to ABCG2. The data set is described as follows: ABCG2 substrate specificity: PS uptake with/without Gleevec, T24. Type of data set: cell-based. The following applies: T24 cells (lack ABCG2); PS 500 nM; Gleevec 5 μM; fluorescence.
Excerpt: as §1, §2

Data set [3] deals with T1, ABCG2. Kind of data set: In vitro PDT efficacy with/without Gleevec (MTT), UMUC3. It is filed as cell-based. The following applies: UMUC3 cells.
Excerpt: as §2

The test system of data set [4] is UMUC3 tumors. The data set is described as follows: In vivo uptake in tumor, liver and skin (IVIS), UMUC3 tumors. Further details: species or system SCID mice. Particulars: UMUC3 tumor model; 0.47 μmol/kg. As for the experimental part:
C1i. PS with and without erlotinib show high tumor-uptake and significant difference in their pharmacokinetic profiles in UMUC3 and T24 tumors implanted in SCID mice: The SCID mice bearing either UMUC3 or T24 tumors (4-5 mm size) were injected with the PS 30, and the corresponding erlotinib conjugates 6, 34 & 39 with and without iodine functionality. Among the iodinated analogs, the iodobenzyl group was introduced either at the bottom half of 5 or top half of the molecule 39, and were converted into the corresponding radioactive (^124I-) analogs for PET imaging. The non-radioactive analogs were injected in tumored mice (3 mice/group) at a dose of 0.47 μmol/kg), and the mice were imaged at regular time intervals. The dose was selected on the basis of the therapeutic dose of HPPH. The uptake of tumor, liver and skin was measured by IVIS system (3 mice group), and interesting pharmacokinetic profiles of the PS were observed (FIG. 8).
C1j. […] Therefore, the tumors were exposed to light at their optimal uptake time points respectively.

The subject of data set [5] is UMUC3 tumors. The data set is described as follows: HPPH-PDT in combination with BCG, UMUC3 tumors. Type of data set: in vivo, mice. Particulars: HPPH 0.47 μmol/kg in combination with BCG (1-1.5×10^6 CFU SQ weekly×3); 135 J/cm^2, 75 mW/cm^2 at 6 h. On the procedure: For details see the text.
One hour after the PDT treatment, BCG was injected (1-1.5×10^6 CFU), SQ weekly×3 doses, and the day 30 data summarized in FIG. 11, are very encouraging.

Data set [6] concerns HNSCC cells. Kind of data set: 3-D co-culture of HN-85-1-3 and tumor stromal cells. It is filed as cell-based. The following applies: 1600 nM, 24 h, then 48 h in medium. As for the experimental part:
The cells were washed free of PS and incubated for additional 48 h in medium. The fluorescence for CSFE stromal cells and PS fluorescence was recorded in an inverted fluorescent microscope.
The tumor specificity of the compounds was also confirmed in head & neck cancer using 3D culture system.

Data set [7] concerns HN-85-1-3 cells. Kind of data set: Growth inhibition of EGF-dependent HNSCC cell cultures. Particulars: 3.2 μM, 72 h, RPMI+10% FBS; preliminary experiments. It is filed as cell-based. As for the experimental part:
HN-85-1-3 cells were cultured of 72 h in regular growth medium (RPMI+10% FBS) and containing 3.2 μM erlotinib or the indicated PSs. The cell density was photographically recorded at the beginning and end of the culture period. The cell-associated PSs were determined by fluorescence imaging.

Molecules are shown by their SMILES.

For `CCCCCCOC(C)c1c(C)c2cc3nc(c4c5[nH]c(cc6nc(cc1[nH]2)C(C)=C6CC)c(C)c5C(=O)C4)[C@@H](CCC(=O)O)[C@@H]3C` (some centres unmarked) [HPPH, 2-(1-Hexyloxyethyl)-2-devinyl pyropheophorbide-a], the results for the “uptake of PS on addition of Gleevec” value in data set [1] and in data set [2] were “significantly increased” and “did not show any significant increase”, respectively. Also, in data set [3], the “substrate of ABCG2” value is on record as “substrates of ABCG2”. In data set [3] (MTT assay), the “PDT efficacy with and without Gleevec” value is “enhancement of PDT efficacy”. Further, the “time of optimal/maximum tumor uptake post-injection” value in data set [4] is 24 h. In data set [5], the “long-term cure compared to HPPH-PDT alone” value was “improved long-term cure”. In data set [6], the “retention by HNSCC cells in 3-D co-culture” value is on record as “low retention”.

Take `C#Cc1cccc(Nc2ncnc3cc(OCCOC)c(OCCOC)cc23)c1` [erlotinib]: the growth inhibition result in data set [7] is recorded as “cytostatic action”.

Source of the values: patent US11083793B2, “Epidermal growth factor receptor (EGFR) targeted photosensitizers” (Health Research, Inc., priority 2016, dated 2021).
